# Assay results from ChEMBL document CHEMBL1201862, “PubChem BioAssay data set” (2004).
# Activity calls are given as the source filed them.
# Legend:
# Paired box protein Pax-8 = Paired box protein Pax-8 (Homo sapiens, UniProt Q06710); assay: PAX8 transcriptional activity inhibition in RMG-I – RMG-I cells, luciferase, cherry-pick, dose response (AID 687027); assay type: functional, cell-based;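 further: luciferase reporter driven by Pax8 target thyroperoxidase promoter measured by SteadyGlo luminescence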
# [1] = OVCAR-3 cell viability loss – plate reader, dry powder samples, PAX8 inhibitor project, dose response (AID 743044); assay type: functional, cell-based
# [2] = reduced cellular PGC1a acetyl-lysine signal – cell-based, cherry-picked samples, dose response (AID 720514); assay type: functional;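 further: potency may reflect raised or lowered acetylation signal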
# [3] = OVCAR8 cell viability loss – plate reader, dry powder samples, PAX8 project, dose response (AID 743197); assay type: functional, cell-based; conditions: OVCAR-8
# [4] = general cell-killing toxicity readout – plate reader, dry powder samples, cytotoxicity control for PAX8 inhibitor project, dose response (AID 743021); assay type: functional, cell-based
# [5] = M. tuberculosis H37Rv growth inhibitors, H37Rv strain (AID 1626); assay type: functional
# [6] = Luminescence-based cell-based high throughput dose response assay to identify activators of the DAF-12 from the parasite S. stercoralis (ssDAF-12).; assay type: functional
# [7] = molecular target: T1, Oxysterols receptor LXR-beta (Homo sapiens, UniProt P55055); assay: LXR agonists, Gal4 luciferase reporter, dose response, counter-screen for ssDAF-12 agonist project, cell-based, luminescence, HEK293, S. stercoralis campaign (AID 720737); assay type: functional; conditions: read-out: IC50 (the source's name)
# T1 sequence (P55055 whole entry): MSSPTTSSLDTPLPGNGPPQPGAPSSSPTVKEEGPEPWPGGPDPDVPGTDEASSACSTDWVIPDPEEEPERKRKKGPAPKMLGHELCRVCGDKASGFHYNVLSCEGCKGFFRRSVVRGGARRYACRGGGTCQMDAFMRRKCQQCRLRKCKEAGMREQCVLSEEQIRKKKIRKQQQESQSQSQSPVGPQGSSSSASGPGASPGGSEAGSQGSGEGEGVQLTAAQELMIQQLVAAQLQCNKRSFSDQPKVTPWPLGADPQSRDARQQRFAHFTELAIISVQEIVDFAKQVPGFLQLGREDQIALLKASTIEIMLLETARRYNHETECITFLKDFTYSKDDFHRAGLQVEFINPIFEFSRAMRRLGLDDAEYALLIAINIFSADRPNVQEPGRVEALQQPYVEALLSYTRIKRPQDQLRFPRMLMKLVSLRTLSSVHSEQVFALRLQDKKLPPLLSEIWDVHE
# [8] = IGROV1 cell killing – plate reader, dry powder samples, PAX8 inhibitor project, dose response (AID 743043); assay type: functional, cell-based; conditions: IGROV-1
# cells [9] = assay type: functional, cell-based
# Coagulation factor XII = molecular target: T2, Coagulation factor XII (Homo sapiens, UniProt P00748); assay type: functional;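 further: activated factor XIIa alpha cleaving a fluorogenic AMC peptide substrate; inhibitor potency from loss of enzyme activity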
# T2 sequence (P00748 whole entry): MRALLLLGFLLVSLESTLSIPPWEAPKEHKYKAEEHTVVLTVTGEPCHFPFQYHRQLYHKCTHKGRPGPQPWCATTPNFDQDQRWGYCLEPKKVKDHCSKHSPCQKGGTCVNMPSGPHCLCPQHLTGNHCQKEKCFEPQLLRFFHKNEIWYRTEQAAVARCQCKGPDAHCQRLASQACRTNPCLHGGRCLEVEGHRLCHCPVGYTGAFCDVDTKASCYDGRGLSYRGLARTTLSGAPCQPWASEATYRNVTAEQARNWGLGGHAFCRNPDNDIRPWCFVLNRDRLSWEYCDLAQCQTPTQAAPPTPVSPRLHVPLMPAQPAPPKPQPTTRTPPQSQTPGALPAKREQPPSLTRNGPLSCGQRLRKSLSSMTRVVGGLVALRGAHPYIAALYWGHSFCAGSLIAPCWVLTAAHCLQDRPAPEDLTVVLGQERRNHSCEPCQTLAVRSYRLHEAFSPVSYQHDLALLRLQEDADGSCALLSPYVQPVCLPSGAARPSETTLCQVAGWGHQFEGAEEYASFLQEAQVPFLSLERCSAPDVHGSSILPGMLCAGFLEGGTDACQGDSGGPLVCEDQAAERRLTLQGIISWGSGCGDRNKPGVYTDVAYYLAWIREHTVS
# [10] = molecular target: T3, Trace amine-associated receptor 1 (Homo sapiens, UniProt Q96RJ0); assay: Counterscreen for agonists of the human trace amine associated receptor 1 (hTAAR1): Fluorescence-based cell-based high throughput dose response assay to identify hTAAR1 agonist that also desensitize TAAR1 receptor response.; assay type: functional
# T3 sequence (Q96RJ0 whole entry): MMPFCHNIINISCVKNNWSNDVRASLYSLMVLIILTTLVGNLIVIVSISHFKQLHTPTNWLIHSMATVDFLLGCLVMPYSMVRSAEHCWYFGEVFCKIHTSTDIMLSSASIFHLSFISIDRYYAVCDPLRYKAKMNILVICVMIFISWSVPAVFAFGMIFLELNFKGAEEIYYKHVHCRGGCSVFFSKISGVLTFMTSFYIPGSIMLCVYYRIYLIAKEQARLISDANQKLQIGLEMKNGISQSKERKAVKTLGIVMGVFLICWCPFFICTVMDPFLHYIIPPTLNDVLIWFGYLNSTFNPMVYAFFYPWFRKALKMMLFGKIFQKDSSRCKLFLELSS
# [11] = molecular target: Voltage-dependent T-type calcium channel subunit alpha-1H (Homo sapiens, UniProt O95180); assay type: functional;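 further: channel activity triggered by adding a high calcium stimulation buffer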
# cells [12] = assay type: functional, cell-based; remark: listed apart in the source
# [13] = molecular target: T3, Trace amine-associated receptor 1; assay: Fluorescence-based cell-based high throughput dose response assay to identify agonists of the human trace amine associated receptor 1 (TAAR1).; assay type: functional
# [14] = toxicity toward HepG2 liver cells – cell-based, plate reader, cherry-pick, antagonist series, cytotoxicity control, dose response (AID 743416); assay type: functional
# [15] = A549 cell cytotoxicity, dose response, cytotoxicity control, plate reader, cherry-pick, antagonist series (AID 743412); assay type: functional, cell-based
# [16] = viability loss in HEK293 cells – cell-based, plate reader, cherry-picked samples, cytotoxicity control, dose response (AID 743446); assay type: functional
# [17] = blockade of melanocortin 4 receptor signaling – cell-based, plate reader, cherry pick, counter-screen for LGR2 antagonist project, dose response (AID 743444); assay type: functional;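 further: transfected HEK 293 cells stimulated with alpha-MSH peptide; potency of inhibitors of the alpha-MSH evoked signal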
# cells [18] = assay: cells
# Major prion protein = Major prion protein (Homo sapiens, UniProt P04156); assay type: functional, cell-based
# Caspase-6 = molecular target: T4, Caspase-6 (Homo sapiens, UniProt P55212); assay: inhibition of CASP6 peptide cleavage – biochemical, VEID-R110 fluorescence, cherry-pick, dose response (AID 720632)
# T4 sequence (P55212 whole entry): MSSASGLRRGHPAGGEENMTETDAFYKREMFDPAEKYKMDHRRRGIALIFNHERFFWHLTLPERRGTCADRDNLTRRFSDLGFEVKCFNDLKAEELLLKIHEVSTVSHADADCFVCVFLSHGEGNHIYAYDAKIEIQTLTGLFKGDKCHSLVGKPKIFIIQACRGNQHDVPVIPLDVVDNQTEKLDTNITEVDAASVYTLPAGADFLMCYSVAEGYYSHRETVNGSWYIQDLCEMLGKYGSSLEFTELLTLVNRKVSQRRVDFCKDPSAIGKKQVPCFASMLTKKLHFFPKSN
# Genome polyprotein = Genome polyprotein (dengue virus type 2, UniProt P29990); assay: flavivirus cap methylation enzyme inhibition – biochemical, confirmation dose response, primary screen (AID 588689); assay type: functional
# Protein RecA = molecular target: T5, Protein RecA (Mycobacterium tuberculosis, UniProt P9WHJ3); assay: Fluorescence Cell-Free Homogeneous Dose Retest to Identify Inhibitors of RecA-Intein Splicing Activity. [Related pubchem assays (depositor defined):AID2097, AID2223, AID489010, AID492950]; assay type: functional
# T5 sequence (P9WHJ3 whole entry): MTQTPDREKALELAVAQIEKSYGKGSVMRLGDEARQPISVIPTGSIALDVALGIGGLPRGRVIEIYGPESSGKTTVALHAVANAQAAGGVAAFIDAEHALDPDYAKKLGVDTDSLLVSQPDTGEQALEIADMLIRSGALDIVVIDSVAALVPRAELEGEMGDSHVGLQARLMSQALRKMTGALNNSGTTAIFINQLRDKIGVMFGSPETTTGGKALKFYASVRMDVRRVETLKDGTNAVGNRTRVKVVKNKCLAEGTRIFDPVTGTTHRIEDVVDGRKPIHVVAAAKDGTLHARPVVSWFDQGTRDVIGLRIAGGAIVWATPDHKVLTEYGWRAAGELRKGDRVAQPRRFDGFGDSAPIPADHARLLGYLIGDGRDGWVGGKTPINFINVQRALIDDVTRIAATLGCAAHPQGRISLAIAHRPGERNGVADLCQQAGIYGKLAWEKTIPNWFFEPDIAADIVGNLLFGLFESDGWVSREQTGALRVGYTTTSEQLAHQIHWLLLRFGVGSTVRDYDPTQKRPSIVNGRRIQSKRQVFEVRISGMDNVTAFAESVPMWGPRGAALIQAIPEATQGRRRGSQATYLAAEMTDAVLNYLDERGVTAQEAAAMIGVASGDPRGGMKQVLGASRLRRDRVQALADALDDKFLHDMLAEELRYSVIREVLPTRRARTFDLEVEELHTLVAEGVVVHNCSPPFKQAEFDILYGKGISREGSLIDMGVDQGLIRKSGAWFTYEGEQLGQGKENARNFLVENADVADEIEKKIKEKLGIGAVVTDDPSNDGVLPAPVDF
# [19] = Trypanosoma cruzi growth suppression in host cells – NIH3T3 host cells, beta-gal luminescence, confirmation (AID 2044); assay type: functional, cell-based;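 further: intracellular parasites grown in NIH/3T3 mouse fibroblasts as host cells; luminescent beta-galactosidase reporter signal from transgenic T. cruzi replicating inside host cells; inhibitors lower the luminescence signal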
# [20] = molecular target: T6, Mannose-6-phosphate isomerase (Homo sapiens, UniProt P34949); assay: MPI inhibition at elevated mannose 6-phosphate – biochemical, fluorescence intensity, high mannose 6-phosphate, primary screen (AID 1220)
# T6 sequence (P34949 whole entry): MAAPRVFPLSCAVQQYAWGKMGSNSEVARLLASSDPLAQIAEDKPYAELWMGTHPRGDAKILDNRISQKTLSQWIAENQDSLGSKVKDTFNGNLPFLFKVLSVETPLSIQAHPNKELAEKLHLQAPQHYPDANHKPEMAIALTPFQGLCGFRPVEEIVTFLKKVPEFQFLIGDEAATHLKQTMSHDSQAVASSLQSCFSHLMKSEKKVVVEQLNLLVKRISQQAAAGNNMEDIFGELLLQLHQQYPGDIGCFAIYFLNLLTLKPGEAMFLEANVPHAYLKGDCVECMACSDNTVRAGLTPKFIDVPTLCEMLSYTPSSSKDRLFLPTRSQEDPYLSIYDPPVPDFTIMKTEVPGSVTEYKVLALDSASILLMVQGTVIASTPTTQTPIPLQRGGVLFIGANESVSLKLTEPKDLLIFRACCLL
# [21] = NIH3T3 cell viability loss – ATP luminescence, mouse fibroblasts, counter-screen, dose response (AID 2010); assay type: functional, cell-based;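 further: cells exposed to compound for about 90 hours before reading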
# Sequence of Paired box protein Pax-8 (Q06710 whole entry): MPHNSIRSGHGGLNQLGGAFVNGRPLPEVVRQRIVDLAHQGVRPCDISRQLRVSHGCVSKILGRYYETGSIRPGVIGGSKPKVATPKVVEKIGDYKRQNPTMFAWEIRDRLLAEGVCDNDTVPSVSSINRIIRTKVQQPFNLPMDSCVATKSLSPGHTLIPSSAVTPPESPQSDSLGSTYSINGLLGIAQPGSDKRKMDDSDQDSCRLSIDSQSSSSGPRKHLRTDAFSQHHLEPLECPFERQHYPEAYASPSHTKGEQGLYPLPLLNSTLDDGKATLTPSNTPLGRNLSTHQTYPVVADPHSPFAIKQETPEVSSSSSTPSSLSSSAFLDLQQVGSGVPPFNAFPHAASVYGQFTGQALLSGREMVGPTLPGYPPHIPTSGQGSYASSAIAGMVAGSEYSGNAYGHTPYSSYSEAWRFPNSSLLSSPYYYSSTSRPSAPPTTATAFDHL
# Sequence of Genome polyprotein (P29990 2492-3391 limits assumed): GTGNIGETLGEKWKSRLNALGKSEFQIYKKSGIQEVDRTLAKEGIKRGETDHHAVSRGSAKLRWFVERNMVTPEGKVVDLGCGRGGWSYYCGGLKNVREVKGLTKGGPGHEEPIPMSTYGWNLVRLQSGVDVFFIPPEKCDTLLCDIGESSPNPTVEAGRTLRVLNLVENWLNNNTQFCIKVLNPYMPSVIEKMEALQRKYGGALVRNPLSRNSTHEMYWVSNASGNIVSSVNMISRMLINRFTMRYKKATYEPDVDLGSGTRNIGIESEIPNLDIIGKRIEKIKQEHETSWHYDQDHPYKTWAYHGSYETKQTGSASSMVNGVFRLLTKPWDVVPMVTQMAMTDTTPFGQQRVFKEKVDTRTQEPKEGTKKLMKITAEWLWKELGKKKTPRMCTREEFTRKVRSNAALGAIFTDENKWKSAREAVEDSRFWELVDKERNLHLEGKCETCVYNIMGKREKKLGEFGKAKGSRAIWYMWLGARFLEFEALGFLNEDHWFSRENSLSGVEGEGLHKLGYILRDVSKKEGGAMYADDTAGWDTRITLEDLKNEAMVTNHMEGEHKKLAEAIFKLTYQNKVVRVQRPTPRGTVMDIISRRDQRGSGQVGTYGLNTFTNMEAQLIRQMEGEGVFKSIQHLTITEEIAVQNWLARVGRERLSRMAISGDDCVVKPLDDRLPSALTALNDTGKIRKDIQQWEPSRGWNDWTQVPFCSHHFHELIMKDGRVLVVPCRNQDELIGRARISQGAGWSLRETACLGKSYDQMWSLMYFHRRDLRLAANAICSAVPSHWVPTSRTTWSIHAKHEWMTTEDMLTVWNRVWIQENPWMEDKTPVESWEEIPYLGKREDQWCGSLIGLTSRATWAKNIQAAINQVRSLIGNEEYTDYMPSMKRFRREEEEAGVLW
# Sequence of Voltage-dependent T-type calcium channel subunit alpha-1H (O95180 whole entry): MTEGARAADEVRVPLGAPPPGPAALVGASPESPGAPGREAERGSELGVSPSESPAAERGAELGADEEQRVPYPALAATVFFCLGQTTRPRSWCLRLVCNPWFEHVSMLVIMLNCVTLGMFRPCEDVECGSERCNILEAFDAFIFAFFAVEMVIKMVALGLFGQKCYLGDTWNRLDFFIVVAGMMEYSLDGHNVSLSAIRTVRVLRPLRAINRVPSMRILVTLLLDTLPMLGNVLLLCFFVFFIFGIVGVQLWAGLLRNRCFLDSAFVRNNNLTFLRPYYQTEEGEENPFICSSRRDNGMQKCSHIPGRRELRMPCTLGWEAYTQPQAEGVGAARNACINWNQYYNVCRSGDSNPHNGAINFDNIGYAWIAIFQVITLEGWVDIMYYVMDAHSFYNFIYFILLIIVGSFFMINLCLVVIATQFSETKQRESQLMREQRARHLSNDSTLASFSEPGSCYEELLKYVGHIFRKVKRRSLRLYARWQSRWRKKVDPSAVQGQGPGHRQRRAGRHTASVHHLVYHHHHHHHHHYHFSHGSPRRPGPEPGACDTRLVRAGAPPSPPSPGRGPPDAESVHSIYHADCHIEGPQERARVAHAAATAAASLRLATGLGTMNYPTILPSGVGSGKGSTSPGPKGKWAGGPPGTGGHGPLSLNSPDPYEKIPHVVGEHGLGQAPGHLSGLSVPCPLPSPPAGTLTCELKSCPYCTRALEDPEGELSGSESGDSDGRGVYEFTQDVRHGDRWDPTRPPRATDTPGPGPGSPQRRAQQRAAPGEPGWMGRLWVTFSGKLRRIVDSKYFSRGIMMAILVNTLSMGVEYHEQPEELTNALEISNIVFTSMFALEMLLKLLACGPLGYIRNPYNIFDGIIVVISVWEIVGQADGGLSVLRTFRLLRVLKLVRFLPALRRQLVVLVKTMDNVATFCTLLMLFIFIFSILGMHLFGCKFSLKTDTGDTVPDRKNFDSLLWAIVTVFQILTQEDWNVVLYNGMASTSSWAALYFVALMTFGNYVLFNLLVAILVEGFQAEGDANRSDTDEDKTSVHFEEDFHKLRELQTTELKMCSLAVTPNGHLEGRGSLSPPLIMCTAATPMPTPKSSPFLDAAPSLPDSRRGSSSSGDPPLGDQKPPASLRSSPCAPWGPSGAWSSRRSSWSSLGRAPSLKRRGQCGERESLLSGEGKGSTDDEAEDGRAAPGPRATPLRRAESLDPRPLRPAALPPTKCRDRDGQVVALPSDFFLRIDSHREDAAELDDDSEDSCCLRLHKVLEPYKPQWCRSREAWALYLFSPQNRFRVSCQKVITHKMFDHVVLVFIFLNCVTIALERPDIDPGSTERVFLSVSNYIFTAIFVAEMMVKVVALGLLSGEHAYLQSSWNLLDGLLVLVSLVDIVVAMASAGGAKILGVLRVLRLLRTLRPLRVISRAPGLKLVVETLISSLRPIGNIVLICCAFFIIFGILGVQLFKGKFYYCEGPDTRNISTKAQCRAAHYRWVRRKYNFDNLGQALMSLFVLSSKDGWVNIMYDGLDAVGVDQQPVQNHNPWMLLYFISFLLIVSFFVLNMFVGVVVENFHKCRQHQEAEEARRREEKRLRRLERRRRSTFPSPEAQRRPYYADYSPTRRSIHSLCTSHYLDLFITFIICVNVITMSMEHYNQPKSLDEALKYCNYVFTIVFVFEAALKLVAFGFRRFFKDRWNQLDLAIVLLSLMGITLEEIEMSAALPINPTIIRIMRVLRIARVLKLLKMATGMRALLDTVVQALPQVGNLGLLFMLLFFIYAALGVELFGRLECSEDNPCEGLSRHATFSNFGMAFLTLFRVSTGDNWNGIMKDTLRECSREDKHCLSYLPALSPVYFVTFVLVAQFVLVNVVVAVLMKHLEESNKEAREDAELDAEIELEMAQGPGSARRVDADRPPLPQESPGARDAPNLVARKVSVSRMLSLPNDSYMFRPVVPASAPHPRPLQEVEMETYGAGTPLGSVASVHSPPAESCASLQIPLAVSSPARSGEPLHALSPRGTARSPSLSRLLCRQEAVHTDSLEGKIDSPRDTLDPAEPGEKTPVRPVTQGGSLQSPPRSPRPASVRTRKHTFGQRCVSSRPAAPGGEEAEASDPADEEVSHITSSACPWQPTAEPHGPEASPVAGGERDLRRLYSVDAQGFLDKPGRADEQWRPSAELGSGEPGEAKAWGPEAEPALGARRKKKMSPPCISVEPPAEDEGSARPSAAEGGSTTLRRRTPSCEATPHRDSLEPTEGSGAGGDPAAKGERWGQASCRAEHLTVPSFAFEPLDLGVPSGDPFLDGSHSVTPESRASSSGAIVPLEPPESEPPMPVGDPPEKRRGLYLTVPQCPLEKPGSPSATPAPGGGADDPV
smiles,measurement,setting,value
Cc1ccc(S(=O)(=O)N(C)C[C@H]2Oc3cc(C#Cc4ccncc4)ccc3S(=O)(=O)N([C@H](C)CO)C[C@H]2C)cc1,AC50,Paired box protein Pax-8,4.03 µM (active)
same,AC50,[1],9.03 µM (active)
same,AC50,[2],4.27 µM (active)
same,AC50,[3],17.4 µM (active)
COC(=O)C1=C(C)N(Cc2cccc(C(F)(F)F)c2)C(NCc2ccc(OC)cc2)=NC1c1cccc(F)c1 (stereo not given),AC50,Paired box protein Pax-8,11.5 µM (active)
same,AC50,[4],33.3 µM (active)
Cc1ccc(NC(=O)COC(=O)CC2CCCC2)cc1Cl,IC50,[5],> 100 µM (active)
CC(=O)Nc1cccc(OCc2ccc(F)cc2)c1,IC50,[5],> 100 µM (active)
CN(CC(=O)Nc1cccc(F)c1)C(=O)c1cccc(S(=O)(=O)N2CCN(Cc3ccccc3)CC2)c1,IC50,[6],> 67.5 µM (inactive)
same,EC50,[7],> 67.5 µM (inactive)
COCc1ccc(CN2CCC(n3nccc3NC(=O)c3ccc4c(c3)OCO4)CC2)o1,AC50,[2],29.9 µM (active)
CC(C)C#Cc1ccc2c(c1)O[C@@H](CN(C)Cc1ccccc1)[C@@H](C)CN([C@@H](C)CO)S2(=O)=O,AC50,[2],16 µM (active)
COc1ccc(-c2ccc([C@@H]3[C@@H]4CN(C(=O)Nc5cccc(F)c5)C[C@H]3N4)cc2)cc1,AC50,Paired box protein Pax-8,5.09 µM (active)
same,AC50,[8],28.4 µM (active)
same,AC50,[1],18.9 µM (active)
same,AC50,[3],58.5 µM (active)
same,AC50,[4],41 µM (active)
Cc1ccc(Cc2cnc(NC(=O)C3CCCO3)s2)cc1 (stereo not given),IC50,[5],> 100 µM (active)
Cc1ccc(-c2nc(CS(=O)(=O)CC(=O)N3CCc4ccccc4C3)c(C)o2)cc1,EC50,cells [9],> 29.9 µM (inactive)
same,IC50,Coagulation factor XII,> 50 µM (inactive)
same,IC50,[10],5.4 µM (active)
same,EC50,[11],2.21 µM (active)
same,IC50,cells [12],> 29.9 µM (inactive)
same,EC50,[13],2.23 µM (active)
C[C@@H]1CCCCO[C@H](CN(C)CC2CCCCC2)[C@H](C)CN([C@H](C)CO)C(=O)c2cc(NS(=O)(=O)c3ccccc3)ccc2O1,AC50,Paired box protein Pax-8,20.1 µM (active)
same,AC50,[14],27.6 µM (active)
same,AC50,[8],57.1 µM (active)
same,AC50,[1],55 µM (active)
same,AC50,[15],17.1 µM (active)
same,AC50,[3],> 70 µM (inactive)
same,AC50,[16],30.8 µM (active)
same,AC50,[17],42.6 µM (active)
same,AC50,[4],39.7 µM (active)
Cc1cc(SCCC(=O)O)nc2c(C)cccc12,IC50,cells [18],> 138 µM (inactive)
same,IC50,Major prion protein,4.67 µM (active)
Cc1ccc(NC(=O)c2ccccn2)c(Br)c1,IC50,[6],> 67.5 µM (inactive)
same,EC50,[7],> 67.5 µM (inactive)
COC(=O)c1c(C)oc2c1cc(NS(=O)(=O)c1ccc(C(=O)O)cc1)c1ccccc12,AC50,Caspase-6,22.6 µM (active)
same,IC50,Genome polyprotein,69 µM (active)
CCCCn1c(N)c(C(=O)NCc2cccs2)c2nc3ccccc3nc21,EC50,Protein RecA,47.4 µM (inconclusive)
same,EC50,[19],2.83 µM (active)
same,IC50,[20],> 50 µM (not active)
same,EC50,[21],> 60 µM (not active)
Cc1ccc(NC(=O)Nc2cccc(C(F)(F)F)c2)nc1,IC50,[6],> 67.6 µM (inactive)
same,EC50,[7],> 67.6 µM (inactive)
